Measurements reported in US5591758A, “Organic nitrates, processes for their preparation and their use in the treatment of cardiovascular diseases” (Laboratoires Hoechst, SA, priority 1991, dated 1997).
Counter-ions that a name gives are not always drawn.

Legend:
anesthetised dogs = test: Haemodynamic effects on anesthetised dogs; type: in vivo, dogs (labrador/harrier cross); conditions: dogs
Method: Haemodynamic effects of the compounds according to the invention on anesthetised pigs or dogs
The dogs, weighing between 16 and 26 kg, are the progeny of a labrador/harrier cross.
In the case of dogs the anesthesia is induced by sodium pentobarbitol (45 mg/jg i.v.) and maintained with an i.v. perfusion (flow rate of 8 mg/kg/h).
The pigs or dogs are placed under artificial respiration in ambient air. Analysis of the blood gases (pO2, pCO2) is carried out at regular intervals and oxygen can be supplied via the respirator, if necessary.
The haemodynamic parameters recorded include the left ventricular pressure (LVP; Millar PC350 Tip catheter inserted via the carotid artery), systemic blood pressure (BPs, BPd; full catheter in a femoral artery), the end pressure of the left ventricular diastole (LVEDP), the ventricular contractility (LVPdp/dtmax) and the heart rate (HR).
Following an equilibration period of the order of 45 minutes, the compounds studied are administered intraduodenally (i.d.) or intraveinously (i.v.) to several animals (1 to 4). The haemodynamic variables are recorded continuously for 1 to 3 hours, as a function of the period of action of the compound.
The effects of the compounds studied are shown as the absolute difference with respect to the base value (bv) measured before administration of the compounds and are shown in Table VII (a,b,c).
An antianginal activity is estimated by a fall in the BPs and the LVEDP (fall in venous return).

thoracic aorta = test: Vasorelaxant effect on isolated vessels (rat thoracic aorta rings without endothelium, precontracted with noradrenalin); parameters: species or system Wistar rats; conditions: for Emax: Rattus norvegicus, maximum inhibition of noradrenalin effect, 10^-8 to 10^-4 M substance, read-out: Maximum Relaxation; for IC50: rat aorta, 10^-7 M noradrenalin contraction
Method: Vasorelaxant effect of the compounds according to the invention on isolated vessels.
Adult Wistar rats weighing between 250 and 350 g are anaesthetised by intraperitoneal injection of sodium pentobarbital (30 mg/kg). The thoracic aorta is rapidly removed and placed in a refrigerated and oxygenated solution of bicarbonate buffer of the Krebs-Ringer type (composition [mM]: NaCl, 118; KCl, 4.7; CaCl2, 2.5; MgSO4, 1.2; KH2 PO4, 1.2; NaHCO3, 25.0; disodium calcium salt of EDTA, 0.026; glucose 11.1). The aorta is dissected with the aim of removing the connective tissue and then cut into 6 rings (length 5-10 mm). The endothelium is removed by moderate abrasion of the intimal surface of the aortic segments with the aid of a pair of tweezers. These segments are then placed between two hooks in an isolated organ cell filled with 25 ml of bicarbonate buffer (pH 7.4), thermostat-controlled at 37° C. and oxygenated with the aid of a 95% O2 /5% CO2 mixture (pH 7.4). One of the hooks is fixed to a fixed point, while the second is connected to a transducer with the aim of measuring the variations in isometric voltage (expressed in grams). After an equilibration period of 30 min., the segments are progressively withdrawn so as to attain the level of base voltage for which the contractor response to noradrenalin (10^-7 M) is maximum (optimum voltage; average 2 g). The absence of endothelium is verified by addition of a single concentration of acetylcholine (10^-6 M), after precontraction of the vessels by noradrenalin (10^-7 M). The integrity of the vascular smooth muscle is also verified by adding a single concentration of a vasodilator whose response is independent of the presence of the endothelium, SIN-1 (10^-5 M). After this initial procedure, the aortas are washed, equilibrated for a period of 30 min and then recontracted (10^-7 M noradrenalin). The relaxant effect of the substance to be tested is then evaluated by adding increasing concentrations of this substance (from 10^-8 to 10^-4 M). The maximum inhibition of the concentration caused by noradrenalin (expressed as a percentage) is then calculated ("maximum relaxation"). When this maximum relaxation is greater than 50%, the concentration of substance tested producing a 50% inhibition of the maximum contraction (IC50) is calculated. Table V below collates the IC50 and the maximum relaxation percentages for the various compounds tested.

| Compound | BPs (min), period of action (anesthetised dogs; 3 mg/kg i.v.) | BPs, difference to base value (anesthetised dogs; 3 mg/kg i.v.) | LVEDP (min), period of action (anesthetised dogs; 3 mg/kg i.v.) | LVEDP, difference to base value (anesthetised dogs; 3 mg/kg i.v.) | Emax (thoracic aorta) | IC50 (thoracic aorta) | BPs (min), period of action (anesthetised dogs; 3 mg/kg i.d.) | BPs, difference to base value (anesthetised dogs; 3 mg/kg i.d.) | LVEDP (min), period of action (anesthetised dogs; 3 mg/kg i.d.) | LVEDP, difference to base value (anesthetised dogs; 3 mg/kg i.d.) | BPs (min), period of action (anesthetised dogs; 10 mg/kg i.v.) | BPs, difference to base value (anesthetised dogs; 10 mg/kg i.v.) | LVEDP (min), period of action (anesthetised dogs; 10 mg/kg i.v.) | LVEDP, difference to base value (anesthetised dogs; 10 mg/kg i.v.) |
| --- | --- | --- | --- | --- | --- | --- | --- | --- | --- | --- | --- | --- | --- | --- |
| CC(C)(C)OC(=O)NCC(=O)O[C@H]1CO[C@H]2[C@@H]1OC[C@H]2O[N+](=O)[O-] [Compound 1, N-[(t-Butoxy)carbonyl]glycine ester of 5-O-nitro-1,4:3,6-dianhydro-D-glucitol] | 10 min | 5 mmHg | 10 min | 1,0 mmHg | 83% | 32 µM |  |  |  |  |  |  |  |  |
| NCC(=O)O[C@H]1CO[C@H]2[C@@H]1OC[C@H]2O[N+](=O)[O-] [Compound 2, Glycine ester of 5-O-nitro-1,4:3,6-dianhydro-D-glucitol monohydrochloride] | > 120 min | -10 mmHg | > 120 min | -1,0 mmHg | 52% | 100 µM |  |  |  |  |  |  |  |  |
| NCC(=O)O[C@@H]1CO[C@H]2[C@@H]1OC[C@@H]2O[N+](=O)[O-] [Compound 3, Glycine ester of 2-O-nitro-1,4:3,6-dianhydro-D-glucitol monohydrochloride] |  |  |  |  | 63% | 79 µM | > 60 min | -10 mmHg | > 60 min | -4,5 mmHg |  |  |  |  |
| C[C@H](NC(=O)OC(C)(C)C)C(=O)N[C@H]1CO[C@H]2[C@@H]1OC[C@@H]2O[N+](=O)[O-] [Compound 7, N-[(t-Butoxy)carbonyl]-L-alanine amide of 5-amino-5-deoxy-2-O-nitro-1,4:3,6-dianhydro-L-iditol] | > 90 min | -20 mmHg | > 90 min | -2,0 mmHg | 96% | 17 µM |  |  |  |  |  |  |  |  |
| C[C@H](N)C(=O)N[C@H]1CO[C@H]2[C@@H]1OC[C@@H]2O[N+](=O)[O-] [Compound 8, L-Alanine amide of 5-amino-5-deoxy-2-O-nitro-1,4:3,6-dianhydro-L-iditol monohydrochloride] |  |  |  |  | 80% | 32 µM | > 150 min | -30 mmHg |  |  |  |  |  |  |
| CC(C)[C@H](NC(=O)OC(C)(C)C)C(=O)N[C@H]1CO[C@H]2[C@@H]1OC[C@@H]2O[N+](=O)[O-] [Compound 9, N-[(t-Butoxy)carbonyl]-L-valine amide of 5-amino-5-deoxy-2-O-nitro-1,4:3,6-dianhydro-L-iditol] |  |  |  |  | 70% | 80 µM | > 60 min | 5 mmHg | 0 min | 0,0 mmHg |  |  |  |  |
| CC(C)(C)OC(=O)N[C@@H](Cc1ccccc1)C(=O)N[C@H]1CO[C@H]2[C@@H]1OC[C@@H]2O[N+](=O)[O-] [Compound 11, N-[(t-Butoxy)carbonyl]-L-phenylalanine amide of 5-amino-5-deoxy-2-O-nitro-1,4:3,6-dianhydro-L-iditol] | > 30 min | -10 mmHg | 0 min | 0,0 mmHg | 100% | 25 µM |  |  |  |  |  |  |  |  |
| N[C@@H](Cc1ccccc1)C(=O)N[C@H]1CO[C@H]2[C@@H]1OC[C@@H]2O[N+](=O)[O-] [Compound 12, L-phenylalanine amide of 5-amino-5-deoxy-2-O-nitro-1,4:3,6-dianhydro-L-iditol monohydrochloride] |  |  |  |  | 100% | 2.5 µM | > 240 min | -30 mmHg |  |  |  |  |  |  |
| CC(C)(C)OC(=O)N1CCC[C@H]1C(=O)N[C@H]1CO[C@H]2[C@@H]1OC[C@@H]2O[N+](=O)[O-] [Compound 13, N-[(t-Butoxy)carbonyl]-L-proline amide of 5-amino-5-deoxy-2-O-nitro-1,4:3,6-dianhydro-L-iditol] |  |  |  |  | 74% | 49 µM | > 120 min | -30 mmHg |  |  |  |  |  |  |
| O=C(N[C@H]1CO[C@H]2[C@@H]1OC[C@@H]2O[N+](=O)[O-])[C@@H]1CCCN1 [Compound 14, L-Proline amide of 5-amino-5-deoxy-2-O-nitro-1,4:3,6-dianhydro-L-iditol monohydrochloride] | > 90 min | -10 mmHg | > 90 min | -2,0 mmHg | 98% | 14 µM |  |  |  |  |  |  |  |  |
| CC(C)(C)OC(=O)NCC(=O)N[C@H]1CO[C@H]2[C@@H]1OC[C@H]2O[N+](=O)[O-] [Compound 15, N-[(t-Butoxy)carbonyl]glycine amide of 2-amino-2-deoxy-5-O-nitro-1,4:3,6-dianhydro-D-glucitol] |  |  |  |  | 58% | 60 µM | > 180 min | -20 mmHg | > 180 min | -3,0 mmHg |  |  |  |  |
| NCC(=O)N[C@H]1CO[C@H]2[C@@H]1OC[C@H]2O[N+](=O)[O-] [Compound 16, Glycine amide of 2-amino-2-deoxy-5-O-nitro-1,4:3,6-dianhydro-D-glucitol monohydrochloride] |  |  |  |  | 41% | > 100 µM |  |  |  |  | > 30 min | -5 mmHg | > 30 min | -1,0 mmHg |
| CC(C)(C)OC(=O)N1CSC[C@H]1C(=O)O[C@H]1CO[C@H]2[C@@H]1OC[C@H]2O[N+](=O)[O-] [Compound 18, 2-O-[(3-t-Butoxycarbonyl-4-L-thiazolidinyl)carbonyl]-5-O-nitro-1,4:3,6-dianhydro-D-glucitol] |  |  |  |  | 75% | 72 µM |  |  |  |  | > 30 min | -10 mmHg | > 30 min | 3,0 mmHg |
| O=C(O[C@H]1CO[C@H]2[C@@H]1OC[C@H]2O[N+](=O)[O-])[C@@H]1CSCN1 [Compound 19, 2-O-[(4-L-Thiazolidinyl)carbonyl]-5-O-nitro-1,4:3,6-dianhydro-D-glucitol monohydrochloride] |  |  |  |  | 40% | > 100 µM |  |  |  |  | > 60 min | -35 mmHg | 0 min | 0,0 mmHg |
| CC(=O)NCSC[C@H](N)C(=O)O[C@H]1CO[C@H]2[C@@H]1OC[C@H]2O[N+](=O)[O-] [Compound 21, S-[(Acetylamino)methyl]-L-cysteine ester of 5-O-nitro-1,4:3,6-dianhydro-D-glucitol monohydrochloride] |  |  |  |  | 31% | 100 µM | > 60 min | -5 mmHg | > 60 min | -2,0 mmHg |  |  |  |  |
| CC(C)(C)OC(=O)N1CSC[C@H]1C(=O)O[C@@H]1CO[C@H]2[C@@H]1OC[C@@H]2O[N+](=O)[O-] [Compound 24, 5-O-[(3-t-Butoxycarbonyl-4-L-thiazolidinyl)carbonyl]-2-O-nitro-1,4:3,6-dianhydro-D-glucitol] | > 30 min | -10 mmHg | 10 min | 1,0 mmHg | 100% | 20 µM |  |  |  |  |  |  |  |  |
| O=C(N[C@H]1CO[C@H]2[C@@H]1OC[C@H]2O[N+](=O)[O-])c1ccccc1SCc1ccccc1 [Compound 45] | > 120 min | -10 mmHg | 0 min | 0,0 mmHg |  |  |  |  |  |  |  |  |  |  |
